In ChEMBL document CHEMBL3507680, “University of Dundee, Gates Library screen for HepG2 cell viability” one finds cytotoxicity data, which are given here for 95 compounds.

The data set is described as follows: Human HepG2 cell viability assay in 384 well format. The following applies: HepG2 cells, read-out: Inhibition. Also on record: dose 125 nL, time 70.5 hour; concentration not given beside the values. Format: toxicity, cell-based.
Consider `C[C@@H](O)CNc1c(NCc2ccco2)c(=O)c1=O`, for which the cytotoxicity at 70.5 h was -12.9%. Then `O=c1c(NCCNCCO)c(N2CCN(Cc3ccccc3)CC2)c1=O`, with -3.52%. To `CC(C)CNC(=O)CNC(=O)c1nc(Cc2c(Cl)cccc2Cl)no1` belongs -9.72%; to `O=c1c(NCCCO)c(N2CCN(c3ccccc3)CC2)c1=O`, -2.43%. Then `CCOC(=O)c1sc(NC(=O)c2cc(=O)c(OC)c[nH]2)nc1C`, with -8.8%. Consider `O=c1c(NCCc2ccc(O)cc2)c(NCc2ccccn2)c1=O`, for which the cytotoxicity at 70.5 h turned out to be 6.43%. Then `CC(C)C(=O)Nc1ccc2c(c1)ncn2CC(=O)NCCN(C)C`, with -7%; and `O=C1CC(c2cccnc2)c2c(c(C(=O)O)cn2-c2ccccc2F)N1` (stereo not given), with -13.2%; and `Cc1nn(C)cc1CC(C#N)C(=O)Nc1cccc(O)c1` (stereo not given), with -12.6%. To `CN(Cc1ccccc1)C(=O)Cn1nc(N2CCOCC2)ccc1=O` belongs 9.2%; to `COc1c[nH]c(C(=O)N2CCN(c3ccccc3)CC2)cc1=O`, -11.3%; to `COc1ccccc1CNc1c(N2CCN(C(C)=O)CC2)c(=O)c1=O`, -10.2%. To `O=C(NC1CC1)c1cccc(Oc2ccc3nncn3n2)c1` belongs -4.61%. As to `COc1ccc(-c2csc3c2c(N)nc(=O)n3CCN(C)C)cc1`, the cytotoxicity at 70.5 h is -7.62%. Then `Cc1cc(N2CCCC2)nc(N(C)CCO)c1C#N`, with -9.55%; and `COc1ccc(-c2csc3c2c(N)nc(=O)n3CCCN(C)C)cc1`, with -8.54%. Turning to `CC(C)n1c(=O)c2ccccc2n(CCN2CCCCC2)c1=O`, the cytotoxicity at 70.5 h is -12.6%. Then `CN1CCCN(CC(CC(=O)Nc2ccc(Cl)cc2)C(=O)O)CC1` (stereo not given), with -6.04%; and `COCCNC(=O)Cn1cc(OCc2ccccc2)c(=O)cc1CO`, with -15.3%. To `Cc1ccc(C(=O)Nc2nnc(C(C)C)s2)c(-n2cnnn2)c1C` belongs -5.81%.

On to `NC(=O)c1ccccc1NC(=O)CCN1CCN(c2ccccc2)CC1`, for which the cytotoxicity at 70.5 h was -9.88%. Then `COc1ccc2nnc(CCC(=O)Nc3nc(C)c(C)s3)n2n1`, with -9.75%. To `Cc1nn2cnnc2c(C)c1CCC(=O)Nc1nnc(C(C)C)s1` belongs 12.1%. On to `Cn1cc(NC(=O)CNC(=O)N2CCN(c3ccc(F)cc3)CC2)cn1`, for which the cytotoxicity at 70.5 h was -2.76%. Take `CC1=Nc2c(c(=O)[nH]n2C(C)C)C(c2ccc3ncccc3c2)S1` (stereo not given): the cytotoxicity at 70.5 h turned out to be 0.555%. Then `CN(C)S(=O)(=O)c1ccc(-c2nc(C#N)c(NC3CC3)o2)o1`, with -4.74%. Then `O=C(CCc1ccc(-n2cnnn2)cc1)Nc1ccncc1`, with -7.21%; and `Cn1cc(NC(=O)CNC(=O)N2CCN(c3ccc(Cl)cc3)CC2)cn1`, with -5.62%; and `CC(C)OCC(=O)Nc1ccc(Oc2ccc3c(c2)OCO3)nc1`, with -5.21%. Then `COc1coc(C(=O)Nc2nc(-c3ccncc3)cs2)cc1=O`, with -11.9%; and `COc1ccc(NC(=O)c2nc(C)sc2C(C)C)cn1`, with -9.52%. In the case of `O=C(CCc1nc2cccnc2[nH]1)Nc1ccc2c(c1)NC(=O)CO2`, the cytotoxicity at 70.5 h turned out to be 8.55%. To `O=C(Nc1cccnc1-n1cc(Cl)cn1)C1CCCC1` belongs -29.5%; to `COc1ccc2nnc(CCCC(=O)NCc3ccccc3)n2n1`, -13.2%; to `O=C1CC(c2ccc(C(=O)O)cc2)c2cnn(Cc3ccco3)c2N1` (stereo not given), -25.8%. To `Cc1nn2c(-c3cnn(C)c3)nnc2s1` belongs -7.18%; to `CC(C)(C)C1CC(=O)Nc2c1cnn2Cc1ccco1` (stereo not given), -17.9%.

With `O=C1CCC(c2ccc(Cl)cc2)=NN1CN1CCCCCC1`, the cytotoxicity at 70.5 h was -4.16%. As to `COc1coc(C(=O)Nc2nc(-c3cccnc3)cs2)cc1=O`, the cytotoxicity at 70.5 h is -13.5%.

In the case of `C[C@H](NC(=O)N1CCN(c2ccc(Cl)cc2)CC1)C(=O)N1CCSCC1`, the cytotoxicity at 70.5 h was -14.7%. To `COc1ccc2nnc(CCC(=O)Nc3nc4c(s3)CCCCC4)n2n1` belongs -17.3%. Then `Cc1cc(O)cc(=O)n1CCCC(=O)Nc1n[nH]c2ccccc12`, with -11.5%; and `Cn1cc(-c2nnc3sc(C4CCC4)nn23)cn1`, with -12.3%. To `Cc1ccc(S(=O)(=O)c2ncccc2CN2CCCC2)cc1` belongs -22.8%; to `Cn1ccc2c(C(=O)NC3CN4CCC3CC4)cccc21` (stereo not given), -32.2%. For the compound `Cc1cc(C)nc(N2CCC(C(=O)Nc3n[nH]c(CC(C)C)n3)CC2)n1`, the cytotoxicity at 70.5 h is -12%. To `Cc1cc(C)nc(NCCC(=O)Nc2ccc(Cn3cncn3)cc2)n1` belongs -9.08%. As for `CC(C)[C@H](NC(=O)N1CCN(c2ccc(Cl)cc2)CC1)C(=O)NC1CC1`, the cytotoxicity at 70.5 h was -17%.

For the compound `Cc1ccc(C(=O)N2C[C@@H]3CN(S(C)(=O)=O)CCO[C@@H]3C2)o1`, the cytotoxicity at 70.5 h was -0.0736%. Then `CC(=O)N1CCC2(CC1)C(=O)N(C)c1c(F)cccc12`, with 3.91%. To `CC(C)CNC(=O)c1cc2c(s1)CCN2Cc1cccnc1` belongs -1.22%; to `COCCCN1CCCCC12CC(=O)N(Cc1ccccn1)C2` (stereo not given), -1.98%; to `Cn1cc(CN2CCc3ncnc(N4CCCC4)c3CC2)cn1`, -0.713%. Turning to `Cn1cccc1C(=O)N1C[C@@H]2CCCO[C@@H]2[C@H](N2CCOCC2)C1`, the cytotoxicity at 70.5 h worked out at 0.647%. To `Cc1ccc(CC(=O)N2CC[C@@H]3NC(=O)CC[C@@H]32)cc1` belongs 4.9%; to `CN(C)CCN1CCOC2(CCN(c3nccs3)CC2)c2ccccc21`, 28.7%; to `CS(=O)(=O)N1CCOC2(CCN(c3nccs3)CC2)c2ccccc21`, 15.3%. Then `CC(C)CN1C(=O)CO[C@@H]2CN(C(=O)NC(C)C)C[C@H]21`, with -2.72%; and `CN(Cc1ccncc1)C1CCC[C@@H]2CN(c3ncccn3)C[C@H]12` (stereo not given in full), with -2.1%; and `Cc1noc(C)c1CN1C[C@@H]2CN(C(=O)c3cscn3)C[C@@H]2C1`, with -2.29%. To `Cn1cc(CN2CCO[C@H]3C(Cn4cccn4)CC[C@@H]32)cn1` (stereo not given in full) belongs 2.67%; to `Cn1cccc1C(=O)N1CC[C@@H]2[C@@H]1CC(=O)N2CC1CCOCC1`, 0.858%; to `COCCNC(=O)C1CN(Cc2ccsc2)Cc2ccnn2C1` (stereo not given), 1.38%. Consider `CS(=O)(=O)N1CC2(CCN(c3nccs3)CC2)c2ccccc21`, for which the cytotoxicity at 70.5 h worked out at 5.59%.

Regarding `CS(=O)(=O)N1CCOC2(CCN(c3ncccn3)CC2)c2ccccc21`, the cytotoxicity at 70.5 h is -1.05%. To `CCn1nnc2c1C(COCCN(C)C)CN(c1nncs1)C2` (stereo not given) belongs 31.1%. Then `CN1CC(c2ccccc2)C2(CCN(C(=O)c3ccc[nH]3)CC2)C1=O` (stereo not given), with 2.63%; and `COCCN1C(=O)CC[C@]12CC[C@@H](NCc1ccc(OC)cc1)CC2`, with 0.729%; and `O=S(=O)(c1cccnc1)N1C[C@@H]2COC[C@]2(COCC2CC2)C1`, with -3.67%.

Turning to `CN(C)S(=O)(=O)c1ccc(-c2nc(C#N)c(NC(C)(C)C)o2)o1`, the cytotoxicity at 70.5 h was -8.34%.

In the case of `CN1C(=O)C2(CCN(C(=O)c3ccccc3)CC2)c2cccc(F)c21`, the cytotoxicity at 70.5 h was 0.835%.

`Cc1cccc(CN2CCS(=O)(=O)[C@@H]3CCN(S(C)(=O)=O)CC[C@@H]32)n1`: the cytotoxicity at 70.5 h was 17.2%. To `CN(C)C(=O)N[C@H]1CN(C2CCOCC2)[C@@H]2CCCO[C@H]12` belongs 17.6%; to `Cc1noc(C)c1CN1CC2(CCCCN2C)CC1=O` (stereo not given), 17.1%; to `CCc1ccc(CN2CCc3ncnc(N4CCOCC4)c3CC2)o1`, -1.4%. Then `CN(C)CC(=O)N1CCc2ncnc(-c3cncnc3)c2CC1`, with -3.5%; and `O=C1NC2(CCN(CC3CC3)CC2)CC1c1ccccc1` (stereo not given), with -1.19%; and `O=C([C@H]1C[C@@H]2[C@@H](C1)OCCN2CC1CC1)N1CCCC1`, with -1.83%. To `O=C(c1ccccc1)N1C[C@@H]2CCCO[C@@H]2[C@H](N2CCOCC2)C1` belongs 1.03%; to `O=C(c1ccoc1)N1CCCC2(CCC(=O)N2Cc2cccnc2)C1` (stereo not given), 2.4%; to `O=C(NC1CC1)N1CCc2ccc(=O)n(Cc3cccnc3)c2CC1`, 6.33%. For the compound `Cc1ccc(CN2CCOC3(CCN(C(=O)C4CC=CC4)CC3)C2)cc1`, the cytotoxicity at 70.5 h was -2.99%. To `CCn1nnc2c1C(COCCN(C)C)CN(S(=O)(=O)CC)C2` (stereo not given) belongs -1.87%; to `COc1cccc(CN2CCC3(CC2)CCN(c2ncc(C)cn2)C3)c1`, -0.283%; to `c1cnc(N2CCO[C@H]3[C@H](OCCN4CCCC4)CC[C@@H]32)nc1`, 0.11%. Then `Cc1ccc(CN2CCOC3(CCN(C(=O)N4CCCC4)CC3)C2)cc1`, with -2.45%; and `CCn1nnc2c1C(COCCN(C)C)CN(S(C)(=O)=O)C2` (stereo not given), with 2.19%; and `O=C(NC1CC1)N1CCc2ccc(=O)n(CCN3CCCC3)c2CC1`, with 0.272%. As for `N#Cc1ccc(N2CCC3(CC2)CC(OCc2cccnc2)CO3)cc1` (stereo not given), the cytotoxicity at 70.5 h was -1.15%. To `CN(C)C(=O)COC1COC2(CCN(c3cnccn3)CC2)C1` (stereo not given) belongs 1.25%; to `CC(C)N(C)Cc1nnc2n1CCN(CC1CC1)CC2`, -0.138%; to `Cc1ccc2c(n1)N(C)CCN(Cc1ccco1)C2`, -1.42%. To `O=C(CO[C@@H]1CC[C@H]2[C@H]1OCCN2Cc1ccccn1)N1CCCC1` belongs 13.4%; to `Cc1ccc2c(n1)N(C)CCN(CCN1CCCC1)C2`, 4.19%.

Regarding `CN(C)CCN1CCO[C@H]2CN(Cc3ccccn3)C[C@H]21`, the cytotoxicity at 70.5 h was -6%.
